These results are taken from US20220184025A1, “NOVEL DEPSIDE DIMERIC COMPOUNDS FOR SKELETAL MUSCLE MODULATION, METHODS AND USES THEREOF” (SOCIETE DES PRODUITS NESTLE S.A., priority 2019, published 2022).

In the assay the test system is mouse hindlimb muscles. The experiment in a line: In vivo muscle regeneration after cardiotoxin injury. The following applies: mice, oral gavage 100 mg/kg body weight once a day from one week before cardiotoxin injury; muscles harvested 5 days after the injury; vs. water control. As for the experimental part:
Early phase of expansion and subsequent phase of myogenic differentiation of Muscle Stem Cells were evaluated by counting the number of Pax7+ cells (A) and myogenin+ cells (B), respectively. Data are expressed as number of cells per area of injured muscle. The size of each newly formed myofiber (C) has been measured based on the expression of the eMHC and laminin that allow to recognize and delineate these nascent myofibers. Results are shown as mean myofiber cross-sectional area (μm2).
In order to reproduce the physiological process of muscle regeneration that occurs in adult skeletal muscles in response to injury or disease, we performed an intramuscular injection of cardiotoxin into mouse hindlimb muscles. One week prior to the induction of the muscle injury, mice were given by oral gavage diffractaic acid (at 100 mg/kg body weight) vs. water control. Mice were treated once a day until the end of the experiment. To evaluate the efficiency of the muscle regeneration, muscles that have been previously injured were harvested 5 days after the injury and cryosections were prepared. Several myogenic markers were then measured. […]
Data are expressed as number of cells per area of injured muscle. The size of each newly formed myofiber (FIG. 10C) has been measured based on the expression of the eMHC and laminin that allow to recognize and delineate these nascent myofibers. […]

With `COc1cc(C)c(C(=O)Oc2cc(C)c(C(=O)O)c(O)c2C)c(OC)c1C` [Diffractaic acid, Benzoic acid, 2,4-dimethoxy-3,6-dimethyl-, 4-carboxy-3-hydroxy-2,5-dimethylphenyl ester], the “in vivo muscle regeneration process” value is given as “able to promote the in vivo muscle regeneration process”.
